Laboratory results published in patent US6566397B2, “Acyclic isoprenoid ether derivatives as chemotherapeutics” (Wisconsin Alumni Research Foundation, priority 2000, dated 2003).
Like-named read-outs stand apart in the source and are kept apart here.

How the values were obtained:
[1] = Screening of acyclic isoprenoid esters for tumor-suppressive activity in vitro; format: cell-based
Description: (§1) We synthesized and tested a series of esters formed between acyclic isoprenoid alcohols (geraniol, farnesol, nerol, citronellol) and diverse acids (proprionate, isobutyrate, formate, butyrate, caprylate, isovalerate, benzoate, tiglate, anthranilate). […] See Mo, et al. Cancer Letters 157:145-153, 2000 (incorporated by reference).

[2] = tested on: Murine B16 F10 melanoma cells; experiment: Growth of murine B16 F10 melanoma cells in monolayer culture, viable cell count by hemocytometer, photomicrographs; format: cell-based; conditions: for IC50: read-out: IC50, inhibition of net increase in cell count; for apoptosis: 5 μmol/L, B16 melanoma cells, photomicrographs
Protocol: Murine B16 F10 melanoma cells (He, L., et al., supra, 1997) were grown in monolayer culture (35×10 mm tissue culture dishes) in 3 ml RPMI 1640 medium (Sigma Biosciences, St. Louis, Mo.) supplemented with 10% fetal bovine serum (FBS, Sigma Biosciences) and 2% penicillin/streptomycin (Penicillin-Streptomycin Liquid, 1×10^7 units penicilin and 1×10^7 μg streptomycin/L of 0.85% saline, GIBCO BRL, Grand Island, N.Y.). Cultures, seeded with 3.3×10^4 cells/mL, were incubated for 24 hours at 37° C. in a humidified atmosphere of 5% CO2. The medium was decanted and replaced with fresh medium containing the test agents and incubations were continued for 48 hours. M363 and M364 were dissolved in ethanol, and lovastatin (Mevinolin, Sigma) in chloroform. […] The medium and detached (apoptotic) cells were decanted, the monolayer was washed twice with Hanks' Balanced Salt Solution (HBSS, Sigma Biosciences) and then incubated with a trypsin-EDTA solution (Sigma Biosciences) at 37° C. for 2 minutes. Trypsin was inactivated by suspending the cells in medium containing 10% FBS. The trypsinized cells were harvested by centrifugation (250×g) and re-suspended in HBSS. Viable cells, cells that excluded 0.4% trypan blue (GIBCO BRL), were counted with a hemocytometer; 0-time (24-h) cell counts were deducted from final cell counts to provide an estimate of the net increase in cell number.
Photomicrographs (100×, 200× and 400×) of representative fields of cultures of B16 melanoma cells were made with a Labopot-2 microscope (Nikon, Japan) equipped with a SenSys digital camera (Photometrics Tucson, Ariz.) and image-acquisition software (MetaMorph Imaging Systems, Universal Imaging Corporation, West Chester, Pa.).
(§2) The IC50 value represents the concentration of an isoprenoid required to inhibit the net increase in cell count by 50% at a time point within the linear growth period plotted for control cells. We determined the IC50 value by plotting cell number against isoprenoid concentration.

[3] = tested on: Human HL-60 acute promyelocytic leukemia cells; experiment: Growth of human HL-60 leukemia cells in suspension culture, viable cell count by hemocytometer; format: cell-based; conditions: human HL-60 promyelocytic leukemia cells, 24 hours; read-out: IC50, inhibition of net increase in cell count
Protocol: Human HL-60 acute promyelocytic leukemia cells (CCL-240, ATCC) were grown in suspension culture (25 cm^2 flasks) in 8 mL RPMI 1640 medium with 20% FBS and 2% penicillin/streptomycin. Cultures, seeded with 1.25×10^8 cells/L, were incubated with test agents for 24 hours at 37° C. in a humidified atmosphere of 5% CO2. The cells were then collected by centrifugation (250×g) and re-suspended in HBSS. Viable cells, cells that excluded 0.4% trypan blue, were counted with a hemocytometer; 0-time (seeding) cell counts were deducted from final cell counts to provide an estimate of the net increase in cell number.
as §2

[4] = tested on: implanted B16 melanomas; experiment: Growth of implanted B16 melanomas, agent in diet; format: in vivo
Description: as §1
We note that the farnesyl moiety of the test agent comprised trans, trans and cis, trans isomers. […] The prospect of a chemotherapeutic application of […] is dimmed by findings that its very potent tumor-suppressive action is markedly attenuated by […], an essential dietary constituent (Qureshi, A., et al., J. Nutr. 126:389-394, 1996).

[5] = tested on: implanted B16 melanomas; conditions: cited from earlier work
[6] = tested on: pancreatic tumors implanted in Syrian Golden hamsters; conditions: 90 mmol/kg diet; cited from earlier work
[7] = tested on: murine B16 melanoma cells
[8] = M364 dietary toxicity study in mice; format: in vivo, C57BL6 female mice
Protocol: M364 toxicity and efficacy studies are in progress. Weanling C57BL6 female mice (Harlan Sprague Dawley, Madison, Wis.) are housed in groups of five to six on Cellu-Dri bedding (Waldschmidt & Sons, Inc., Madison, Wis.) in stainless steel cages and maintained at 25° C. with a 12-hour light:dark cycle. Three groups of mice (11/group) are being fed AIN-93G diet supplemented with 0 (A, control), 1 (B) and 10 (C) mmol M364/kg diet. Food intakes for mice are recorded daily and mice are weighed on alternate days. Results to date are mixed. […] As a consequence, the body weight of these mice decreased from 13.6 to 11.7 g; on removing the agent (M364) from the diet the mice rapidly regained body weight.

[9] = tested on: Murine B16(F10) melanoma cells; experiment: CellTiter 96 Aqueous One Solution Cell Proliferation Assay; format: cell-based; conditions: 40 hour growth of B16 melanoma cells, 1000 cells/well; read-out: IC50, net absorbance at 490 nm
Protocol: Murine B16(F10) melanoma cells were grown in monolayer culture (96-well tissue culture plate, Fisher Scientific) in 0.1 mL of RPMI 1640 medium (Sigma) supplemented with 10% fetal bovine serum (Sigma) and 80 mg/L of gentamycin (Sigma). Cultures were seeded in triplicate (0 to 2450 cells/well with an increment of 350 cells) and incubated for 24 hours or 64 hours at 37° C. in a humidified atmosphere of 5% CO2. At 24 hours the medium was decanted from each well and replaced with fresh medium. Cell populations of all wells were determined at either 24 hours (0 time, 3 wells) or 64 hours (40 hours, all other wells) by adding 20 μl of CellTiter 96® Aqueous One Solution (Promega, Madison, Wis.) to each well; the plate was held in dart at 37° C. for 2 hours and then read at 490 nm with a SPECTRAmax® 190 multi-plate reader with SOFTmax® PRO (Molecular Devices, Sunnyvale, Calif.). The net absorbance, the difference between the 0 time and 40 hours values, plotted on cell inoculation density is linear to 2000 cells/well (FIG. 6). We then applied this optical method to the estimation of the IC50 for M364.
Plates seeded with 1000 cells/well, the midpoint of cell inoculation density (FIG. 6), were cultured as described above. The medium added at 24 hours (0 time) to experimental wells contained 0-10 μmol/L M364 ([4-(3,7,11-trimethyl-2,6,10-dodecatrienyloxy]-phenyl acetate).

[10] = murine melanoma B16 cells, 48 hours, hemocytometer

For `CC(C)=CCCC(C)=CCCC(C)=CCOC(=O)c1ccccc1N` [farnesyl anthranilate], the “tumor-suppressive activity in vitro” value [1] was “significant tumor-suppressive activity”, the “morphological changes of cells” value ([2]; 100 μmol/L, B16 cells, 400× photomicrograph FIG. 4F) was “morphological changes similar to those attained with 10 μmol M364” and the IC50 ([2]; Mus musculus, 48 h) was 45 ± 6 µM. The IC50 [3] was 80 ± 10 µM, the “growth of implanted B16 melanomas” value ([4]; 1.5 mmol/kg diet) was “substantially suppressed the growth” and the “effect of dietary α-tocopherol on the agent's action” value ([4]; dietary α-tocopherol) was “did not compromise”.
In the case of `CC(C)=CCC/C(C)=C/CC/C(C)=C/CC[C@]1(C)CCc2cc(O)c(C)c(C)c2O1` [γ-tocotrienol], the “growth of implanted B16 melanomas” value ([5]; 0.116 mmol/kg diet) is given as “suppressed the growth” and the “efficacy in suppressing growth of implanted melanomas relative to farnesol” value ([5]; <1 mmol/kg diet) is given as ~100 ×.
In the case of `CC(C)=CCCC(C)=CCCC(C)=CCO` [farnesol], the “growth of implanted pancreatic tumors” value [6] is given as “suppressed the growth”.
With `CC(C)=CCC/C(C)=C/COC(=O)c1ccccc1N` [geranyl anthranilate] the “tumor-suppressive activity in vitro” value [1] was “significant tumor-suppressive activity”.
For `CC(=O)Oc1ccc(OCC=C(C)CCC=C(C)C)cc1` [M363, [4-(3,7-dimethyl-2,6-octadienyloxy]-phenyl acetate], the apoptosis [2] was “initiated apoptosis”, the IC50 [2, 10] was 5.1 ± 0.8 µM and the IC50 [3] was 58.6 ± 2.3 µM.
In the case of `CC(C)=CCCC(C)=CCCC(C)=CCOC(=O)c1ccccc1` [farnesyl benzoate], the “tumor-suppressive activity in vitro” value [1] is reported as “significant tumor-suppressive activity”.
With `CC(=O)Oc1ccc(OCC=C(C)CCC=C(C)CCC=C(C)C)cc1` [M364, [4-(3,7,11-trimethyl-2,6,10-dodecatrienyloxy]-phenyl acetate] the apoptosis [2] was “initiated apoptosis”, the “suppression of cell growth” value ([2]; M364 1 μmol/L, B16 cells) was 45% and the IC50 [2, 10] was 2 ± 0.6 µM. For the same compound, the IC50 [3] was 4.9 ± 3.7 µM, the “increase in proportion of cells in G1” value ([7]; M364 1 μmol/L) was 33% and the “body weight and general appearance” value ([8]; 1 mmol M364/kg diet) was “match the controls”. For the same compound, the “general condition of mice” value ([8]; 10 mmol M364/kg diet) was “remained healthy and active”, the food intake ([8]; 10 mmol M364/kg diet, 6 day exposure) was “decreased” and the “body weight after exposure to diet” value ([8]; 10 mmol M364/kg diet, 6 day exposure, decreased from 13.6 g, regained on removing agent) was 11.7 g. It also gave an IC50 [9] of 2.2 µM.
In the case of `CC[C@H](C)C(=O)O[C@H]1C[C@@H](C)C=C2C=C[C@H](C)[C@H](CC[C@@H]3C[C@@H](O)CC(=O)O3)[C@H]21` [lovastatin], the “suppression of cell growth” value ([2]; lovastatin 0.75 μmol/L, B16 cells) is reported as 25% and the “increase in portion of cells in G1” value ([7]; lovastatin 0.75 μmol/L) is reported as 33%.
For `C/C=C(\C)C(=O)OC/C=C(\C)CCC=C(C)C` [geranyl tiglate], the “tumor-suppressive activity in vitro” value [1] was “significant tumor-suppressive activity”.
For `CC(C)=CCC/C(C)=C/COC(=O)c1ccccc1` [geranyl benzoate], the “tumor-suppressive activity in vitro” value [1] was “significant tumor-suppressive activity”.
For `C/C=C(\C)C(=O)OCC=C(C)CCC=C(C)CCC=C(C)C` [farnesyl tiglate], the “tumor-suppressive activity in vitro” value [1] was “significant tumor-suppressive activity”.
